Laboratory results published in patent US20250186521A1 (priority 2018, published 2025).

What was measured:
Type in all cases: in vivo, Broiler chickens
Eimeria acervulina [1] = test: Anticoccidial efficacy (Example 5): lesion score and OPG, Eimeria acervulina; conditions: 60 g/t, infected
Source text: (§1) • 1. No Additive, no Cocci. • 2. No Additive, Cocci. • 3. Salinomycin 60 g/t, Cocci. • 4. Product Z 0.551%, Cocci.
(§2) Cages were blocked by location in the battery with block size equal to the groups (8 cages per block). The study began when the birds were placed (day of hatch, i.e., DOT 0) at which time they were allocated to the experimental cages. Only healthy birds were selected (10 birds/cage).
(§3) An unmedicated commercial chicken feed composition compounded with feedstuffs commonly used in the U.S. poultry industry, such as cereals and proteins, was obtained. The diet was an all-vegetable feed with no antibiotics, organic acids, NSP enzymes, or direct fed microbial. This feed in mash form was fed ad libitum from the date of chick arrival until Day 28 of the study. Experimental feeds augmented with the algal biomass were prepared from this commercial poultry feed. The feeds were mixed to assure a uniform distribution of algal biomass into the mash feed. […]
(§4) On DOT 20, five birds from each cage were selected, sacrificed, weighed, and examined for the degree of presence of coccidia lesions. If less than five birds were present at time of scoring, all remaining birds within the cage were scored. […]
(§5) Means for cage weight gain, feed consumption, feed conversion rate, lesion scores, opgs, and mortality were calculated.

Eimeria maxima [2] = test: Cocci Test (Example 6): lesion score and OPG, Eimeria maxima; conditions: 1.0 lb/t, infected
Source text: (§6) • 1. No Additive, no Cocci • 2. No Additive, Cocci • 3. Salinomycin 60 g/t, Cocci • 4.
(§7) Each group was replicated 10 times. Cages were blocked by location in the battery with block size equal to groups (7 cages per block). The study began when the birds were placed (day of hatch, i.e., DOT 0) at which time they were allocated to the experimental cages. Only healthy birds were selected (10 birds/cage).
as §3, §4, §5

Eimeria tenella [3] = test: Cocci Test (Example 6): lesion score and OPG, Eimeria tenella; conditions: 1.0 lb/t, infected
Source text: as §6, §7, §3, §4, §5

Eimeria tenella [4] = test: Anticoccidial efficacy (Example 5): lesion score and OPG, Eimeria tenella; conditions: 60 g/t, infected
Source text: as §1, §2, §3, §4, §5

[5] = tested on: mixed E. acervulina, E. maxima, and E. tenella coccidial inoculum; test: Anticoccidial efficacy versus salinomycin (Example 5): performance, average lesion score, total OPG; conditions: 60 g/t
Source text: as §1, §2
Upon arrival, chicks were raised in Petersime battery cages. At placement the birds were fed the various feeds. The Petersime batteries were in an insulated building having a concrete floor and a metal overhead structure. The floor space per animal was 0.51 sq. ft. per bird. The feeder space per bird was 10 birds per 24×3.5-inch feeder. Uniform temperature and illumination was provided.
(§8) An unmedicated commercial chicken feed composition compounded with feedstuffs commonly used in the U.S. poultry industry, such as cereals and proteins, was obtained. The diet was an all-vegetable feed with no antibiotics, organic acids, NSP enzymes, or direct fed microbial. This feed in mash form was fed ad libitum from the date of chick arrival until Day 28 of the study. Experimental feeds augmented with the algal biomass were prepared from this commercial poultry feed. The feeds were mixed to assure a uniform distribution of algal biomass into the mash feed.
Day of hatch male broiler chicks of strain Cobb X Cobb were obtained from Cobb-Vantress, Cleveland, GA. Sets of ten chicks were randomly selected, group weighed and placed into cages. No birds were replaced during the study.
(§9) All birds were weighed by cage on DOT 0, 14, 20 and 28. Feed was weighed in on DOT 0 and remaining feed was weighed on DOT 14, 20, and 28.
Coccidial oocysts inoculation procedures were described. On Day 14 of the study all birds except Tl orally received a mixed E. acervulina, E. maxima, and E. tenella coccidial inoculum diluted to a 1 ml volume (p.o.). Inoculum level attempted to produce a moderate challenge.
(§10) On DOT 20, five birds from each cage were selected, sacrificed, weighed, and examined for the degree of presence of coccidia lesions. If less than five birds were present at time of scoring, all remaining birds within the cage were scored. The Johnson and Reid, 1970 method of coccidiosis lesion scoring was used to score the infected region(s) of the intestine. The scoring was based on a 0 to 4 score, with 0 being normal and 4 being the most severe.
(§11) Day 19 (Day 5 post challenge) drop pans from all cages were cleaned. Day 20 (Day 6 pc) mixed feces were collected from each cage. Each sample was examined for the number of oocysts per gram fecal material by fecal floatation.
as §5

Eimeria acervulina [6] = test: Cocci Test (Example 6): lesion score and OPG, Eimeria acervulina; conditions: 1.0 lb/t, infected
Source text: as §6, §7, §3, §4, §5

Eimeria maxima [7] = test: Anticoccidial efficacy (Example 5): lesion score and OPG, Eimeria maxima; conditions: 60 g/t, infected
Source text: as §1, §2, §3, §4, §5

[8] = tested on: mixed E. acervulina, E. maxima, and E. tenella coccidial inoculum; test: Cocci Test (Example 6): performance, average lesion score, total OPG; conditions: 1.0 lb/t
Source text: as §6, §7
Upon arrival, chicks were raised in Petersime battery cages. At placement the birds were fed the various feeds. The Petersime batteries were in an insulated building having a concrete floor and a metal overhead structure. The floor space per animal was 0.51 sq. ft per bird. The feeder space per bird was 10 birds per 24×3.5-inch feeder. Uniform temperature and illumination was provided.
as §8
Day of hatch male broiler chicks of strain Cobb 500 were obtained from Cobb-Vantress, Cleveland, GA. Sets of ten chicks were randomly selected, group weighed and placed into cages. Number and disposition of all birds not used for allocation were documented. No birds were replaced during the study.
as §9
On Day 14 of the study all birds except Tl orally received a mixed E. acervulina, E. maxima, and E. tenella coccidial inoculum diluted to a 1 ml volume (p.o.). Inoculum level attempted to produce a moderate challenge.
as §10, §11, §5

## CC[C@@H](C(=O)[C@@H](C)[C@@H](O)[C@H](C)[C@@H]1O[C@@H]([C@@H](CC)C(=O)O)CC[C@@H]1C)[C@H]1O[C@]2(C=C[C@@H](O)[C@]3(CC[C@@](C)([C@H]4CC[C@](O)(CC)[C@H](C)O4)O3)O2)[C@H](C)C[C@@H]1C [Salinomycin]
Eimeria acervulina [1]; DOT 20, 0 to 4 score
  Lesion Scores Eimeria acervulina: 2.1c
Eimeria acervulina [1]; Day 20 feces
  OPG Eimeria acervulina: 4511c OPG
Eimeria maxima [2]; DOT 20, 0 to 4 score
  Lesion Scores Eimeria maxima: 1.7b
Eimeria maxima [2]; Day 20 feces
  OPG Eimeria maxima: 2608a OPG
Eimeria tenella [3]; DOT 20, 0 to 4 score
  Lesion Scores Eimeria tenella: 1.1b
Eimeria tenella [3]; Day 20 feces
  OPG Eimeria tenella: 1768b OPG
Eimeria tenella [4]; DOT 20, 0 to 4 score
  Lesion Scores Eimeria tenella: 0.7c
Eimeria tenella [4]; Day 20 feces
  OPG Eimeria tenella: 4727c OPG
[5]; infected
  FCR Day 0-20: 1.597bc
  FCR Day 0-28: 1.625bc
  FCR Day 14-20: 1.744b
  FCR Day 14-28: 1.766c
  Feed Intake Day 0-20: 5.433a
  Feed Intake Day 0-28: 5.918a
  Feed Intake Day 14-20: 3.049a
  Feed Intake Day 14-28: 3.534a
  Wt. Gain Day 0-20: 0.360b
  Wt. Gain Day 0-28: 0.376b
  Wt. Gain Day 14-20: 0.185b
  Wt. Gain Day 14-28: 0.202b
[5]; infected on Day 14
  FCR Day 14: 1.156a
  Feed Intake Day 14: 2.384a
  Wt. Gain Day 14: 0.218a
[5]; infected, DOT 20, 0 to 4 score
  Lesion Scores Avg.: 1.3c
[5]; infected, Day 20 feces
  OPG Total Avg.: 9722b OPG
Eimeria acervulina [6]; DOT 20, 0 to 4 score
  Lesion Scores Eimeria acervulina: 1.7c
Eimeria acervulina [6]; Day 20 feces
  OPG Eimeria acervulina: 30802c OPG
Eimeria maxima [7]; DOT 20, 0 to 4 score
  Lesion Scores Eimeria maxima: 0.9c
Eimeria maxima [7]; Day 20 feces
  OPG Eimeria maxima: 484b OPG
[8]; infected
  FCR Day 0-20: 1.876ab
  FCR Day 0-28: 1.832a
  FCR Day 14-20: 1.839b
  FCR Day 14-28: 1.789a
  Feed Intake Day 0-20: 7.064b
  Feed Intake Day 0-28: 9.852bc
  Feed Intake Day 14-20: 3.628b
  Feed Intake Day 14-28: 6.416b
  Wt. Gain Day 0-20: 0.382b
  Wt. Gain Day 0-28: 0.718bc
  Wt. Gain Day 14-20: 0.201b
  Wt. Gain Day 14-28: 0.537b
[8]; infected on Day 14
  FCR Day 14: 1.491a
  Feed Intake Day 14: 3.436ab
  Wt. Gain Day 14: 0.232b
[8]; infected, DOT 20, 0 to 4 score
  Lesion Scores Avg.: 1.5c
[8]; infected, Day 20 feces
  OPG Total Avg.: 35.178c OPG
